These results are taken from ChEMBL document CHEMBL4680214, “Fluorinated derivatives of 2-phenyl-3-hydroxy-4(1H)-quinolinone as tubulin polymerization inhibitors” (Eur J Med Chem, 2020).

SMILES strings stand for the structures.

In test [1] the test system is K562. Nature of the test: Cytotoxicity against human paclitaxel-resistant K562 cells incubated for 72 hrs by MTS assay. In kind it is functional, cell-based. Particulars: K562, 72 h. Background: Formazan colour is commonly taken as a measure of viable cells.
For test [2], the system named is HCT-116. As to the kind of experiment: Cytotoxicity against human HCT-116 cells incubated for 72 hrs by MTS assay. The note with it: HCT-116, 72 h. In kind it is functional, cell-based.
The test system of test [3] is HCT-116. Nature of the test: Cytotoxicity against p53-deficient human HCT-116 cells incubated for 72 hrs by MTS assay. In kind it is functional, cell-based. The note with it: HCT-116, 72 h.
Test [4] deals with CCRF-CEM. Nature of the test: Cytotoxicity against human CCRF-CEM cells incubated for 72 hrs by MTS assay. In kind it is functional, cell-based.
In test [5] the test system is CCRF-CEM. Nature of the test: Cytotoxicity against human daunorubicine-resistant CCRF-CEM cells incubated for 72 hrs by MTS assay. In kind it is functional, cell-based.
Test [6] deals with K562. As to the kind of experiment: Cytotoxicity against human K562 cells incubated for 72 hrs by MTS assay. Format: functional, cell-based. Particulars: K562, 72 h.
The test system of the next test is A549. Nature of the test: Cytotoxicity against human A549 cells incubated for 72 hrs by MTS assay. Format: functional, cell-based. The note with it: A549, 72 h.
Another test concerns BJ. As to the kind of experiment: Cytotoxicity against human BJ cells incubated for 72 hrs by MTS assay. Format: cell-based.
In test [7] the test system is CCRF-CEM. Nature of the test: Cell cycle arrest in human CCRF-CEM cells assessed as BrU incorporation at IC50 measured after 24 hrs by propidium iodide/immunostaining based flow cytometry (reference value: 52.2%). In kind it is functional. A general note: Flow cytometry measures light scatter and fluorescence of single cells or particles in a stream.
For test [8], the system named is CCRF-CEM. Nature of the test: Cell cycle arrest in human CCRF-CEM cells assessed as accumulation at S phase at 5 times IC50 measured after 24 hrs by propidium iodide staining based flow cytometry (reference value: 42.2%). In kind it is functional.
In test [9] the test system is CCRF-CEM. As to the kind of experiment: Cell cycle arrest in human CCRF-CEM cells assessed as BrdU incorporation at IC50 measured after 24 hrs by propidium iodide/immunostaining based flow cytometry (reference value: 60.0%). Format: functional.
For test [10], the system named is CCRF-CEM. Nature of the test: Cell cycle arrest in human CCRF-CEM cells assessed as accumulation at sub-G1 phase at IC50 measured after 24 hrs by propidium iodide staining based flow cytometry (reference value: 2%). In kind it is functional.
Test [11] concerns CCRF-CEM. Nature of the test: Cell cycle arrest in human CCRF-CEM cells assessed as accumulation at G0/G1 phase at IC50 measured after 24 hrs by propidium iodide staining based flow cytometry (reference value: 35.2%). Format: functional.
In test [12] the test system is CCRF-CEM. Nature of the test: Cell cycle arrest in human CCRF-CEM cells assessed as phosphorylation of histone H3 at Ser10 at IC50 measured after 24 hrs by propidium iodide staining based flow cytometry (reference value: 2.0%). In kind it is functional.
Test [13] deals with CCRF-CEM. Nature of the test: Cell cycle arrest in human CCRF-CEM cells assessed as accumulation at G0/G1 phase at 5 times IC50 measured after 24 hrs by propidium iodide staining based flow cytometry (reference value: 35.2%). Format: functional.
Test [14] relates to CCRF-CEM. As to the kind of experiment: Cell cycle arrest in human CCRF-CEM cells assessed as BrdU incorporation at 5 times IC50 measured after 24 hrs by propidium iodide/immunostaining based flow cytometry (reference value: 60.0%). Format: functional. A general note: Incorporation of labelled thymidine or its analogues reports DNA synthesis.
Test [15] concerns CCRF-CEM. As to the kind of experiment: Cell cycle arrest in human CCRF-CEM cells assessed as accumulation at G2/M phase at 5 times IC50 measured after 24 hrs by propidium iodide staining based flow cytometry (reference value: 22.6%). In kind it is functional.
Test [16] deals with CCRF-CEM. As to the kind of experiment: Cell cycle arrest in human CCRF-CEM cells assessed as phosphorylation of histone H3 at Ser10 at 5 times IC50 measured after 24 hrs by propidium iodide staining based flow cytometry (reference value: 2.0%). In kind it is functional.
Test [17] concerns CCRF-CEM. As to the kind of experiment: Cell cycle arrest in human CCRF-CEM cells assessed as accumulation at G2/M phase at IC50 measured after 24 hrs by propidium iodide staining based flow cytometry (reference value: 22.6%). Format: functional.
Test [18] relates to CCRF-CEM. Nature of the test: Cell cycle arrest in human CCRF-CEM cells assessed as BrU incorporation at 5 times IC50 measured after 24 hrs by propidium iodide/immunostaining based flow cytometry (reference value: 52.2%). Format: functional.
Test [19] relates to CCRF-CEM. Nature of the test: Cell cycle arrest in human CCRF-CEM cells assessed as accumulation at sub-G1 phase at 5 times IC50 measured after 24 hrs by propidium iodide staining based flow cytometry (reference value: 2%). In kind it is functional.
Test [20] relates to CCRF-CEM. As to the kind of experiment: Cell cycle arrest in human CCRF-CEM cells assessed as accumulation at S phase at IC50 measured after 24 hrs by propidium iodide staining based flow cytometry (reference value: 42.2%). Format: functional.
The species named for a further test is Sus scrofa. Nature of the test: Inhibition of porcine brain tubulin polymerization assessed as Vmax of polymerization at 10 umol/L measured at 60 secs interval for 30 mins by turbidometric method. The note with it: dose 10.0 µmol/L.

With `O=c1c(O)c(-c2ccccc2)[nH]c2cc(F)c(N3CCOCC3)cc12`, the IC50 with K562 [1] is 12.8 µM; in the test on HCT-116 [2], 5.2 µM; in the test with HCT-116 [3], more than 50 µM; with CCRF-CEM [4], more than 50 µM; in the test with CCRF-CEM [5] it was 11.7 µM; in the test on K562 [6] it was 19.3 µM. Further, the half-maximal inhibitory concentration (IC50) in the test on A549 is 13.6 µM; in the test with BJ, more than 50 µM.

Regarding `O=c1c(O)c(-c2ccc(F)cc2)[nH]c2ccccc12`, the Activity with CCRF-CEM [7] is 31.3%; with CCRF-CEM [8], 13.5%; with CCRF-CEM [9] it was 35.5%; in the test with CCRF-CEM [10], 4.4%; in the test on CCRF-CEM [11] it was 39.6%; with CCRF-CEM [12] it was 1.5%. Besides, the Activity is 45.9% with CCRF-CEM [13]; 25.2% with CCRF-CEM [14]; 40.7% in the test on CCRF-CEM [15]; 1.6% in the test with CCRF-CEM [16]; 36.2% with CCRF-CEM [17]; 32.1% in the test on CCRF-CEM [18]. In addition, the Activity in the test with CCRF-CEM [19] is recorded as 8.4%; with CCRF-CEM [20], 24.2%. The concentration for half-maximal inhibition (IC50) in the test with K562 [1] was 8.6 µM; in the test on HCT-116 [2], 34 µM; in the test with HCT-116 [3] it was 36.5 µM; in the test with CCRF-CEM [4], 2.4 µM; in the test on CCRF-CEM [5] it was 9.4 µM; in the test with K562 [6] it was 40.4 µM. For the same molecule, the values for the half-inhibitory concentration (IC50) in the test on A549 and in the test on BJ were 18.1 µM and more than 50 µM, respectively.

`O=c1c(O)c(-c2ccccc2)[nH]c2cc(F)cc(F)c12`: the Activity in the test on CCRF-CEM [7] is given as 57.2%; in the test on CCRF-CEM [8] it was 51.6%; in the test with CCRF-CEM [9], 65.7%; in the test with CCRF-CEM [10], 0.8%; in the test with CCRF-CEM [11], 33%; in the test with CCRF-CEM [12], 2.1%. The Activity in the test on CCRF-CEM [13] is given as 26.6%; in the test on CCRF-CEM [14], 79%; with CCRF-CEM [15], 21.8%; in the test with CCRF-CEM [16], 0.9%; with CCRF-CEM [17] it was 18.6%; with CCRF-CEM [18] it was 53.7%. In addition, the Activity in the test with CCRF-CEM [19] turned out to be 1.4%; with CCRF-CEM [20], 48.4%. Also, the IC50 in the test on K562 [1] was 19.8 µM; with HCT-116 [2], 22.5 µM; in the test with HCT-116 [3], more than 50 µM; in the test on CCRF-CEM [4], 4.6 µM; in the test on CCRF-CEM [5] it was 18 µM; in the test on K562 [6], 21.6 µM. For the same molecule, the half-maximal inhibitory concentration (IC50) is 19.6 µM in the test with A549 and more than 50 µM in the test with BJ.

Regarding `O=c1c(O)c(-c2ccccc2)[nH]c2cc(F)c(F)cc12`, the half-maximal inhibitory concentration (IC50) is 17.4 µM in the test on K562 [1]; 15.1 µM with HCT-116 [2]; 22.6 µM in the test with HCT-116 [3]; 12.6 µM in the test with CCRF-CEM [4]; 12.8 µM in the test on CCRF-CEM [5]; 18.9 µM with K562 [6]. In addition, the concentration for half-maximal inhibition (IC50) in the test with A549 is 18.2 µM; with BJ, more than 50 µM.

Regarding `O=c1c(O)c(-c2ccccc2)[nH]c2cc(F)c(N3CCN(CCOCCO)CC3)cc12`, the IC50 in the test with K562 [1] was more than 50 µM; in the test with HCT-116 [2], more than 50 µM; in the test on HCT-116 [3] it was 29.4 µM; in the test with CCRF-CEM [4], 19.8 µM; in the test on CCRF-CEM [5], more than 50 µM; in the test on K562 [6], 47.7 µM. In addition, the IC50 in the test on A549 and in the test with BJ was more than 50 µM each time.

`O=c1c(O)c(-c2cccc(F)c2)[nH]c2ccccc12`: the Activity in the test with CCRF-CEM [7] stood at 33.7%; in the test on CCRF-CEM [8] it was 19.9%; in the test with CCRF-CEM [9], 26.7%; in the test with CCRF-CEM [10], 5.4%; in the test on CCRF-CEM [11] it was 34.9%; with CCRF-CEM [12], 1%. Moreover, the Activity in the test with CCRF-CEM [13] worked out at 52.6%; with CCRF-CEM [14] it was 22.4%; in the test on CCRF-CEM [15] it was 27.5%; in the test with CCRF-CEM [16], 0.2%; in the test with CCRF-CEM [17], 32.6%; with CCRF-CEM [18], 3.8%. For the same molecule, the Activity in the test on CCRF-CEM [19] is 15.9%; with CCRF-CEM [20], 32.6%. For the same molecule, the IC50 came to 7.5 µM in the test with K562 [1]; 27.1 µM in the test on HCT-116 [2]; 50 µM with HCT-116 [3]; 7.3 µM in the test on CCRF-CEM [4]; 50 µM with CCRF-CEM [5]; 12.9 µM with K562 [6]. Moreover, the IC50 in the test on A549 is 13.1 µM; in the test with BJ it was more than 50 µM.

For `O=c1c(O)c(-c2ccccc2F)[nH]c2ccccc12`, the IC50 with K562 [1] turned out to be 22.2 µM; with HCT-116 [2], 35.1 µM; in the test on HCT-116 [3], 34.2 µM; with CCRF-CEM [4], 17.4 µM; in the test on CCRF-CEM [5], 50 µM; in the test with K562 [6], 33.7 µM. Moreover, the half-inhibitory concentration (IC50) with A549 is 31.7 µM; in the test on BJ, more than 50 µM.

Regarding `O=c1c(O)c(-c2ccccc2)[nH]c2ccc(F)cc12`, the IC50 was 20.3 µM in the test on K562 [1]; more than 50 µM with HCT-116 [2]; 17.4 µM in the test with HCT-116 [3]; 17.8 µM in the test on CCRF-CEM [4]; 15.3 µM in the test with CCRF-CEM [5]; 18.8 µM in the test on K562 [6]. Moreover, the half-inhibitory concentration (IC50) is 18.8 µM in the test on A549 and more than 50 µM in the test with BJ.

In the case of `COC(=O)Nc1nc2cc(C(=O)c3cccs3)ccc2[nH]1`, the Vmax (milli optical density/minute) in the test filed under Sus scrofa was 7.6.

As to `O=c1c(O)c(-c2ccccc2)[nH]c2cc(F)ccc12`, the IC50 in the test with K562 [1] is 21.4 µM; in the test with HCT-116 [2], more than 50 µM; in the test on HCT-116 [3], 43.9 µM; with CCRF-CEM [4], 17.8 µM; in the test on CCRF-CEM [5], 17.5 µM; in the test with K562 [6], 21.7 µM. Further, the IC50 in the test on A549 was 19.5 µM; in the test on BJ, more than 50 µM.

Consider `CC(=O)O[C@H]1C(=O)[C@@]2(C)[C@H]([C@H](OC(=O)c3ccccc3)[C@]3(O)C[C@H](OC(=O)[C@H](O)[C@@H](NC(=O)c4ccccc4)c4ccccc4)C(C)=C1C3(C)C)[C@]1(OC(C)=O)CO[C@@H]1C[C@@H]2O`, for which, in the test filed under Sus scrofa, the Vmax (milli optical density/minute) came to 63.3.

On to `O=c1c(O)c(-c2ccccc2)[nH]c2c(F)c(F)c(F)c(F)c12`, for which the IC50 with K562 [1] is 16.8 µM; in the test with HCT-116 [2], more than 50 µM; in the test on HCT-116 [3] it was more than 50 µM; with CCRF-CEM [4], 19.5 µM; with CCRF-CEM [5], more than 50 µM; in the test on K562 [6] it was more than 50 µM. Moreover, the IC50 in the test on A549 and in the test with BJ was more than 50 µM in each case.

A word on the IC50: it is the concentration that inhibits the measured activity by half.
